# In ChEMBL document CHEMBL1201862, “PubChem BioAssay data set” (2004):
# The source made the active and inactive calls.
# Assays:
# [1] = test system: Streptococcus; assay: GAS UMAA2166 growth inhibition – luminescence, BacTiterGlo, counter-screen for streptokinase expression inhibitor project, dose response (AID 1915); assay type: functional, organism-based;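 note: potency for reduction of bacterial viability or growth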
# [2] = molecular target: T1, Streptokinase A (Streptococcus pyogenes serotype M1, UniProt P10520); assay: viability-normalized secreted streptokinase activity reduction – plasminogen activation absorbance, OD405, dose response (AID 1914); assay type: functional, Streptococcus pyogenes M1 GAS;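 note: secreted streptokinase activity via plasminogen activation per viability signal from cell pellet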
# T1 sequence (P10520 whole entry): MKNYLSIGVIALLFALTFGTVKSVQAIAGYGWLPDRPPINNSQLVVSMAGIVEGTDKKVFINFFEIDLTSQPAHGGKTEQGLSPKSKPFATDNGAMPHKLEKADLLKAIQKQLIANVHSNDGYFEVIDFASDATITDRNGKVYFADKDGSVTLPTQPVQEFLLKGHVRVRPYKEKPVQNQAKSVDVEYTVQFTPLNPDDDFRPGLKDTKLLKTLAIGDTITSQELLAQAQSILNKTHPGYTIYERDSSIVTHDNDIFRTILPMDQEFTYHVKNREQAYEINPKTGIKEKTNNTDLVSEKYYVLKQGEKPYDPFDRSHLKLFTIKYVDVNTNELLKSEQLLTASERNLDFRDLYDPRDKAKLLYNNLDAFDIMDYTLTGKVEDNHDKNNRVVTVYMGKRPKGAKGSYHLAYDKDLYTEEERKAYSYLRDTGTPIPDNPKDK
# [3] = test system: INS1; assay: INS-1E survival protection against cytokine death – cell-based, luminescence, retest, dose response (AID 449756); assay type: functional; details: Rattus norvegicus;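 note: cell death triggered by IL-1 beta plus TNF-alpha plus IFN-gamma mixture; protective hits raise ATP signal compared with cytokine alone wells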
# [4] = molecular target: T2, Corticotropin-releasing factor receptor 2/Corticotropin-releasing factor-binding protein (Homo sapiens, UniProt P24387+Q13324); assay: activators of CRF receptor 2 with binding protein – uHTS hits, confirmation (AID 602473); assay type: functional; details: read-out: EC50_Mean
# T2 sequence (Q13324 whole entry): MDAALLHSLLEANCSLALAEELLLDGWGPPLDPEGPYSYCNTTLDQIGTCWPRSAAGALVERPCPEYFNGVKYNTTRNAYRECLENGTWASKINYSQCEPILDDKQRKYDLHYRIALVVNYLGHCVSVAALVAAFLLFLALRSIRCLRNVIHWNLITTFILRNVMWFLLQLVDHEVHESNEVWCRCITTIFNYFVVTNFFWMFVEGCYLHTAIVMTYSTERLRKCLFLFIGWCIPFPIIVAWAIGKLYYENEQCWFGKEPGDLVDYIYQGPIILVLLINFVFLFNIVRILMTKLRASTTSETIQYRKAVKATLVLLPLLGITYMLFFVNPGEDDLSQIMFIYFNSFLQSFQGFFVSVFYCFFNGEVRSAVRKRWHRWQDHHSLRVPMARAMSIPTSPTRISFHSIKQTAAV
# T2 sequence (P24387 whole entry): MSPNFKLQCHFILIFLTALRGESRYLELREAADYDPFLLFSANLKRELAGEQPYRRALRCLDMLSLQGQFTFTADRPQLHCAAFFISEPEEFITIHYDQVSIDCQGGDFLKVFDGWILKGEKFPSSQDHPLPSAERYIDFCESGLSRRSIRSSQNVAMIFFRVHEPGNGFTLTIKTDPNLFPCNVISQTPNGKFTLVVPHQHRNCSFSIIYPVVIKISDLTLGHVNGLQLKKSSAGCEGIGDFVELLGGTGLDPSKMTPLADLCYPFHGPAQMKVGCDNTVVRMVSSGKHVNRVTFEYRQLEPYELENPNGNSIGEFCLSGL
# [5] = molecular target: Cytochrome P450 2C19 (Homo sapiens, UniProt P33261); assay: Cytochrome panel assay with activity outcomes. Panel member name: p450-cyp2c19 Compounds with AC50 equal or less than 10 uM are considered active; assay type: functional
# [6] = molecular target: Cytochrome P450 3A4 (Homo sapiens, UniProt P08684);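 note: CYP3A4 tested as one member of a cytochrome P450 panel screen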
# [7] = molecular target: Cytochrome P450 2C9 (Homo sapiens, UniProt P11712)
# [8] = molecular target: T3, Cytochrome P450 1A2 (Homo sapiens, UniProt P05177);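 note: PubChem cytochrome P450 panel assay, CYP1A2 panel member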
# T3 sequence (P05177 whole entry): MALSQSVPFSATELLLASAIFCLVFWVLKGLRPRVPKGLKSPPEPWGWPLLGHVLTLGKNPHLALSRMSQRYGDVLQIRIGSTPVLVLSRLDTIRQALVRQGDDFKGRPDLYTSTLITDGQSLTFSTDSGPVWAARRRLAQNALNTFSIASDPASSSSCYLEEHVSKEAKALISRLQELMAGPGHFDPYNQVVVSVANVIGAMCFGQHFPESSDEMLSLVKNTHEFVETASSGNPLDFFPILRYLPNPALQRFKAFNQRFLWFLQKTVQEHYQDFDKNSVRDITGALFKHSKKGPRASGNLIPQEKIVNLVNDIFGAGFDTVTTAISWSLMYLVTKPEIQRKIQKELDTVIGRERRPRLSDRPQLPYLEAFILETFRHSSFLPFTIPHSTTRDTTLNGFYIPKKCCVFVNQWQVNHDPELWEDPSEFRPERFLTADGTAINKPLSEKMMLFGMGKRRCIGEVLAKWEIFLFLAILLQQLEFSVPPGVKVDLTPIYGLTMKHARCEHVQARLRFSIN
# [9] = molecular target: T4, Protein RecA (Mycobacterium tuberculosis, UniProt P9WHJ3); assay: Fluorescence Cell-Free Homogeneous Dose Retest to Identify Inhibitors of RecA-Intein Splicing Activity. [Related pubchem assays (depositor defined):AID2097, AID2223, AID489010, AID492950]; assay type: functional
# T4 sequence (P9WHJ3 whole entry): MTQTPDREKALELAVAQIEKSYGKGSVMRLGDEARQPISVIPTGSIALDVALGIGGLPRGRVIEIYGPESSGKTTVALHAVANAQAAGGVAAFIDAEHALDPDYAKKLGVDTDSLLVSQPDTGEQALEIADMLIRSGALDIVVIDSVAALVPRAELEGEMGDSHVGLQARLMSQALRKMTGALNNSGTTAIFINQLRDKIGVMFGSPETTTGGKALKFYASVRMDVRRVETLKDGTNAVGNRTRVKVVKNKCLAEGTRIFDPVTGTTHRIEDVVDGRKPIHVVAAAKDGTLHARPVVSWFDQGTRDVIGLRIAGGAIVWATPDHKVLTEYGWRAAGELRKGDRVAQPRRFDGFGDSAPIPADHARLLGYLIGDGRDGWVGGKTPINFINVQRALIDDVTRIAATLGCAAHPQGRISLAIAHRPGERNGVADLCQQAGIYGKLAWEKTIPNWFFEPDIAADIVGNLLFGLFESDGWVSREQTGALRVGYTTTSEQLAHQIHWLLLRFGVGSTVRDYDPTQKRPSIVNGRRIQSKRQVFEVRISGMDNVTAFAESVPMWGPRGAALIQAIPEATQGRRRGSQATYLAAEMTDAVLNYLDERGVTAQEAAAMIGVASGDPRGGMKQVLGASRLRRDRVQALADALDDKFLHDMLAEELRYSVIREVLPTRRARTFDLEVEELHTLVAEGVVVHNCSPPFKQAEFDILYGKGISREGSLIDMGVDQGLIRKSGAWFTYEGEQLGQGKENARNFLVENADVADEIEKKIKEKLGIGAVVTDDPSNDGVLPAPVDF
# Sequence of Cytochrome P450 2C9 (P11712 whole entry): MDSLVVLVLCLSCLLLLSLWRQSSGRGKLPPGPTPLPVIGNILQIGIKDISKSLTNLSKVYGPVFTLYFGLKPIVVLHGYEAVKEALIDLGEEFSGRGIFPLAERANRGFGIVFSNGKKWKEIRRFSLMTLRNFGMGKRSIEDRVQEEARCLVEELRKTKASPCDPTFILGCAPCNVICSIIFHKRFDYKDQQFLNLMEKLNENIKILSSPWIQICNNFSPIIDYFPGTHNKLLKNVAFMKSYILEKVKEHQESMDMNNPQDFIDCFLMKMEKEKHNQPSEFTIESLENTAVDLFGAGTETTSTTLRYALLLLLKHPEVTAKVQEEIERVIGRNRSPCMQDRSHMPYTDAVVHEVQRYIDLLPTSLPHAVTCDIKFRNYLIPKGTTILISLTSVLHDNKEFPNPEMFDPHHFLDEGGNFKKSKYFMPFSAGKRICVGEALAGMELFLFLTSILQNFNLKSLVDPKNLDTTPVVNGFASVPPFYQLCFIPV
# Sequence of Cytochrome P450 2C19 (P33261 whole entry): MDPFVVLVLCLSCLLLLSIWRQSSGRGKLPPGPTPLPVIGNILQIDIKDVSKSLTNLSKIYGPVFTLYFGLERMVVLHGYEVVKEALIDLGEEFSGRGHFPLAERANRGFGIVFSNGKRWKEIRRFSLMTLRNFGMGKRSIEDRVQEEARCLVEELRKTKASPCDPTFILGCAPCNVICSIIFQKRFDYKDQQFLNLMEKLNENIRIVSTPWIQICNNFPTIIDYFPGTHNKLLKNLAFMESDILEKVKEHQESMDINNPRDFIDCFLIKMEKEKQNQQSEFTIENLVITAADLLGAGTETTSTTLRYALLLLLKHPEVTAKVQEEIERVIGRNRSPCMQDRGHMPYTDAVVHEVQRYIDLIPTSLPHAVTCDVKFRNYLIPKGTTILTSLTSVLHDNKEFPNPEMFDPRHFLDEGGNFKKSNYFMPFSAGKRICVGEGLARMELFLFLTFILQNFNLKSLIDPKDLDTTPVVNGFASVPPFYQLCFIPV
# Sequence of Cytochrome P450 3A4 (P08684 whole entry): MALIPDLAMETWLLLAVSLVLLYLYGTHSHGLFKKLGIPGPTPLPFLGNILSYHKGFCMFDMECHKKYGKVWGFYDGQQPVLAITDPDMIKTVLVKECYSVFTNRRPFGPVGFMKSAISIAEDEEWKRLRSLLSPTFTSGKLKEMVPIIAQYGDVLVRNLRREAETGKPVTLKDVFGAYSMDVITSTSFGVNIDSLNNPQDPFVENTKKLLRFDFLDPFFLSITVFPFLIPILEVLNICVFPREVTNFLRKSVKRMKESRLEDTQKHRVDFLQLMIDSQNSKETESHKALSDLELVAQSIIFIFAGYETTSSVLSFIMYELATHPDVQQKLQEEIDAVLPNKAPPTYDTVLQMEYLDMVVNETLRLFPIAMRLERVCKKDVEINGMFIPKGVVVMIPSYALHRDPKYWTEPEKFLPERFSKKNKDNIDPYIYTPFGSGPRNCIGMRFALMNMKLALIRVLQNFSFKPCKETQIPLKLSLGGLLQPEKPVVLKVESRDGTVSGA
compound,measurement,setting,value
Cc1ccc(C(=O)Nc2nnc(S(=O)(=O)N3CCN(c4ccc(F)cc4)CC3)s2)cc1,EC50,[1],109 µM (active)
same,EC50,[2],> 150 µM (not active)
COc1ccc(Br)cc1CN(C)CC(=O)NCc1ccc(F)cc1,AC50,[3],114 µM (active)
COc1ccc(C(=O)Cn2cnc3ccccc3c2=O)c(OC)c1,EC50,[4],> 53 µM (inactive)
COc1ccc(CN(C2CCCCC2C)S(=O)(=O)c2ccc(S(=O)(=O)N(C)C)cc2)cc1OC (stereo not given),EC50,[4],5.42 µM (active)
O=C1[C@@H]2[C@H]3[C@H](O)[C@H](O)C/C(=N/OC[C@@H](O)COCc4ccco4)[C@H]3CC[C@H]2C(=O)N1c1ccc(F)cc1F,AC50,[5],inconclusive
same,AC50,[6],3.16 µM (inconclusive)
COc1ccc(NC(=N)SCc2ccccn2)cc1,EC50,[4],15.6 µM (active)
Cc1ccc(S(=O)(=O)N2CCN(c3ncnc4scc(-c5ccccc5)c34)CC2)cc1,EC50,[4],2.65 µM (active)
C/C(Cl)=C/CSc1nnc2n(N)c(=O)c3ccccc3n12,AC50,[5]; read-out: AC50,25.1 µM (inconclusive)
same,AC50,[7],22.4 µM (inconclusive)
COc1ccc(CNS(=O)(=O)NCc2ccccc2)cc1OC,EC50,[4],> 53 µM (inactive)
O=C(NCCO)c1cc2c(s1)CCC2,AC50,[5]; read-out: AC50,5.01 µM (inconclusive)
same,AC50,[8],14.1 µM (inconclusive)
same,AC50,[7],12.6 µM (inconclusive)
O=C(c1ccc(S(=O)(=O)Nc2ccccc2)cc1)N1CCCC(C(F)(F)F)C1 (stereo not given),EC50,[4],10.5 µM (active)
CCN=C(S)N(CCc1ccc(S(N)(=O)=O)cc1)C1CC(=O)N(c2ccccc2)C1=O (stereo not given),EC50,[4],18.5 µM (active)
CC1(c2ccc(OC(F)F)cc2)NC(=O)N(CC(=O)Nc2ccc3c(c2)OCO3)C1=O (stereo not given),EC50,[4],5.24 µM (active)
C=C[C@H](CC(C)C)N(Cc1ccccc1)S(=O)(=O)N(Cc1ccc(OC)cc1)[C@H](C=C)CC(C)C,AC50,[3],5.78 µM (active)
O=C(NCc1nc2ccccc2[nH]1)[C@H]1C[C@@H]1[C@H](NP(=O)(c1ccccc1)c1ccccc1)c1ccccc1,AC50,[5]; read-out: AC50,39.8 µM (inconclusive)
same,AC50,[8],15.8 µM (inconclusive)
same,AC50,[6],0.794 µM (inconclusive)
Cc1ccc(N(Cc2cc(=O)[nH]c3ccccc23)C(=O)CCl)cc1,EC50,[9],> 380 µM (inconclusive)
COc1cnc(-c2ccccn2)nc1Sc1c(Cl)cccc1Cl,AC50,[5]; read-out: AC50,8.91 µM (inconclusive)
same,AC50,[8],2.82 µM (inconclusive)
same,AC50,[7],15.8 µM (inconclusive)
CCCCCCc1ccc(N2C[C@H](Cc3ccccc3)[C@@H](CC(=O)NCc3ccc(OC)cc3)C2=O)cc1,AC50,[3],7.78 µM (active)
Clc1ccc(-c2nnc(-c3ccc(Br)cc3)c(N3CCSCC3)n2)cc1,AC50,[5]; read-out: AC50,11.2 µM (inconclusive)
same,AC50,[7],10 µM (inconclusive)
CCOC(=O)c1ccc(CNC(=O)Cn2nnc(-c3ccccc3)n2)o1,EC50,[4],> 53 µM (inactive)
Cc1cccc(CNc2ccc(S(=O)(=O)N3CCCCC3)cc2)c1,AC50,[3],27.2 µM (active)
O=[N+]([O-])c1ccc(N2CCN(CCOc3nonc3-c3ccccc3)CC2)c(Cl)c1,AC50,[3],4.8 µM (active)
same,AC50,[6],14.1 µM (inconclusive)
N#Cc1ccc(-c2csc(NNC(=O)c3ccccc3)n2)cc1,AC50,[3],> 260 µM (inactive)
CCCn1c(=O)c(C(=O)NNC(=O)c2ccccc2Cl)c(O)c2ccccc21,EC50,[4],5.81 µM (active)
Cc1noc(C)c1C(=O)N1CCC[C@@]2(CCN(Cc3cc(C(F)(F)F)cc(C(F)(F)F)c3)C2)C1,AC50,[5],inconclusive
same,AC50,[6],7.94 µM (inconclusive)
CCOC(=O)c1cc(NC(=O)c2ccc(C)cc2)c(=O)oc1-c1ccccc1,AC50,[5]; read-out: AC50,2.82 µM (inconclusive)
same,AC50,[6],28.2 µM (inconclusive)
CCO/C=C1/C(=O)N(C)C(=O)c2cc(OC)ccc21,EC50,[9],> 380 µM (inactive)
NCCNC(=S)S,AC50,[5]; read-out: AC50,3.98 µM (inconclusive)
same,AC50,[7],6.31 µM (inconclusive)
COc1ccc(-[n+]2c(-c3ccc(Cl)cc3)cn3c2CCCCC3)cc1,AC50,[3],1.44 µM (active)
COC(=O)[C@@]1(Cc2ccc(OC)cc2)[C@H]2c3cc(C(=O)N(C)C)n(Cc4ccc(C(F)(F)F)nc4)c3C[C@H]2CN1C(=O)c1ccccc1,AC50,[5]; read-out: AC50,39.8 µM (inconclusive)
same,AC50,[7],39.8 µM (inconclusive)
CN1C(=O)C(CC(=O)Nc2ccc(F)cc2)N(CCCc2ccccc2)C1=S (stereo not given),AC50,[5]; read-out: AC50,1.78 µM (inconclusive)
same,AC50,[8],25.1 µM (inconclusive)
same,AC50,[6],22.4 µM (inconclusive)
same,AC50,[7],2.82 µM (inconclusive)
CCCn1c(NC(=O)C23CC4CC(CC(O)(C4)C2)C3)nc2ccccc21,EC50,[1],> 150 µM (not active)
same,EC50,[2],> 150 µM (not active)
Cc1cccc(CS(=O)(=O)Cc2ccc(C(=O)NCc3ccco3)o2)c1,AC50,[5]; read-out: AC50,3.55 µM (inconclusive)
same,AC50,[8],5.01 µM (inconclusive)
same,AC50,[6],39.8 µM (inconclusive)
same,AC50,[7],7.08 µM (inconclusive)
Cc1ccc2[nH]c3nc(CCCn4ccnc4-c4ccccc4)nnc3c2c1,AC50,[5]; read-out: AC50,2.51 µM (inconclusive)
same,AC50,[6],3.16 µM (inconclusive)
COC(=O)c1ccc(NC(C)=O)o1,AC50,[5]; read-out: AC50,39.8 µM (inconclusive)
same,AC50,[8],22.4 µM (inconclusive)
COCCCn1nnnc1SCC(=O)N1CCCC1,AC50,[5]; read-out: AC50,25.1 µM (inconclusive)
same,AC50,[7],0.0126 µM (inconclusive)
Cc1nn(C)c(C(=O)N/N=C/c2cccc(Oc3ccccc3)c2)c1Br,EC50,[4],> 53 µM (inactive)
CC(=O)Nc1ccc(/C=N/N2C(=O)NC(C)(c3ccc(OC(F)F)cc3)C2=O)cc1 (stereo not given),EC50,[4],1.37 µM (active)
COCCCNC(=S)N/N=C/c1cccc(OC)c1O,AC50,[3],2.44 µM (active)
C/C(=N/NC(=O)CN(c1ccccc1)S(=O)(=O)c1ccccc1)c1ccccc1O,AC50,[3],2.01 µM (active)
